The record followed here is patent publication US20030170194A1, “Pharmaceutical and/or cosmetic composition containing an organosiloxane and a phospholipid” (priority 2000, published 2003).

The format of the data set is physicochemical. Particulars: composition of 10% by weight phospholipid and 90% by weight hexamethyldisiloxane.

As for `Clc1ccccc1C(c1ccccc1)(c1ccccc1)n1ccnc1` [clotrimazole], the “dissolves in higher concentration than in hexamethyldisiloxane alone” value is on record as 10 fold.
